# In patent US9237747B2, “Herbicidal compositions comprising 4-amino-3-chloro-5-fluoro-6-(4-chloro-2-fluoro-3-methoxyphenyl) pyridine-2-carboxylic acid or a derivative thereof and insecticides” (priority 2013, dated 2016):
# “And” between values parts separate entries of the source, which are not always exact repeats. Equal entries are not always repeated. Where two headings read alike, the source gives them in different places.
# Key:
# ECHCO = experiment: Postemergence foliar-applied weed control, direct-seeded rice (greenhouse); assay type: in vivo, Echinochloa colonum
# Method: (§1) Seeds or nutlets of the desired test plant species were planted in a soil matrix prepared by mixing a loam or sandy loam soil (e.g., 28.6 percent silt, 18.8 percent clay, and 52.6 percent sand, with a pH of about 5.8 and an organic matter content of about 1.8 percent) and calcareous grit in an 80 to 20 ratio. The soil matrix was contained in plastic pots with a volume of 1 quart and a surface area of 83.6 square centimeters (cm^2). […] The plants were grown for 8-22 days in a greenhouse with an approximate 14 hour (h) photoperiod which was maintained at about 29° C. during the day and 26° C. during the night. Nutrients (Peters Excel® 15-5-15 5-Ca 2-Mg and iron chelate) were applied in the irrigation solution as needed and water was added on a regular basis. Supplemental lighting was provided with overhead metal halide 1000-Watt lamps as necessary. The plants were employed for testing when they reached the first through fourth true leaf stage.
# (§2) Treatments consisted of the acid or esters of 4-amino-3-chloro-6-(4-chloro-2-fluoro-3-methoxyphenyl)-5-fluoropyridine-2-carboxylic acid (Compound A), each formulated as an SC (suspension concentrate), and various insecticidal components alone and in combination. Forms of compound A were applied on an acid equivalent basis.
# (§3) For treatments comprised of formulated compounds, measured amounts of compounds were placed individually in 25 mL glass vials and diluted in a volume of 1.25% volume per volume (v/v) Agri-Dex® crop oil concentrate to obtain 12× stock solutions. […] Application solutions were prepared by adding an appropriate amount of each stock solution (e.g., 1 mL) and diluted to the appropriate final concentrations with the addition of […] of an aqueous mixture of 1.25% (v/v) crop oil concentrate so that the final spray solutions contained 1.25+/−0.05% (v/v) crop oil concentrate.
# (§4) As required, additional water and/or 97:3 v/v acetone/DMSO was added to individual application solutions so that the final acetone and DMSO concentrations of the application solutions being compared were 8.1% and 0.25%, respectively.
# (§5) All stock solutions and applications solutions were visually inspected for compound compatibility prior to application. Spray solutions were applied to the plant material with an overhead Mandel track sprayer equipped with 8002E nozzles calibrated to deliver 187 L/ha over an application area of 0.503 square meters (m^2) at a spray height of 18 to 20 inches (46 to 50 cm) above average plant canopy height. Control plants were sprayed in the same manner with the solvent blank.
# (§6) The treated plants and control plants were placed in a greenhouse as described above and watered by sub-irrigation to prevent wash-off of the test compounds. After approximately 3 weeks, the condition of the test plants as compared to that of the untreated plants was determined visually and scored on a scale of 0 to 100 percent where 0 corresponds to no injury or growth inhibition and 100 corresponds to complete kill.
# (§7) Colby's equation was used to determine the herbicidal effects expected from the mixtures (Colby, S. R. Calculation of the synergistic and antagonistic response of herbicide combinations. Weeds 1967, 15, 20-22.).
# (§8) The following equation was used to calculate the expected activity of mixtures containing two active ingredients, A and B: Expected=A+B−(A×B/100)
# BRAPP = experiment: as above; assay type: in vivo, Brachiaria platyphylla
# Excerpt: (§9) Seeds or nutlets of the desired test plant species were planted in a soil matrix prepared by mixing a loam or sandy loam soil (e.g., 28.6 percent silt, 18.8 percent clay, and 52.6 percent sand, with a pH of about 5.8 and an organic matter content of about 1.8 percent) and calcareous grit in an 80 to 20 ratio. The soil matrix was contained in plastic pots with a volume of 1 quart and a surface area of 83.6 square centimeters (cm^2). When required to ensure good germination and healthy plants, a fungicide treatment and/or other chemical or physical treatment was applied. The plants were grown for 8-22 days in a greenhouse with an approximate 14 hour (h) photoperiod which was maintained at about 29° C. during the day and 26° C. during the night. Nutrients (Peters Excel® 15-5-15 5-Ca 2-Mg and iron chelate) were applied in the irrigation solution as needed and water was added on a regular basis. Supplemental lighting was provided with overhead metal halide 1000-Watt lamps as necessary. The plants were employed for testing when they reached the first through fourth true leaf stage.
# as §2
# (§10) Treatment requirements were calculated based upon the rates being tested, the concentration of active ingredient or acid equivalent in the formulation, and a 12 milliliter (mL) application volume at a rate of 187 liters per hectare (L/ha).
# as §3, §4, §5, §6, §7, §8
# CYPIR = assay type: in vivo, Cyperus iria
# Excerpt: as §9, §2, §10, §3, §4, §5, §6, §7, §8
# ECHCG = assay type: in vivo, Echinochloa crus-galli
# Method: as §1, §2, §3, §4, §5, §6, §7, §8
compound,measurement,setting,value
"COc1c(Cl)ccc(-c2nc(C(=O)O)c(Cl)c(N)c2F)c1F [Compound A Acid, 4-amino-3-chloro-6-(4-chloro-2-fluoro-3-methoxyphenyl)-5-fluoropyridine-2-carboxylic acid]",Visual Weed Control (%) - 22 DAA ECHCO Obs,ECHCO; 4.38 g ae/ha alone,55%
same,Visual Weed Control (%) - 21 DAA ECHCO Obs,ECHCO; 4.38 g ae/ha alone,60%
same,Visual Weed Control (%) - 21 DAA ECHCO Obs,ECHCO; 8.75 g ae/ha alone,90%
same,Visual Weed Control (%) - 21 DAA ECHCO Obs,ECHCO; 17.5 g ae/ha alone,95%
same,Visual Weed Control (%) - 20 DAA BRAPP Obs,BRAPP; 4.38 g ae/ha alone,70%
same,Visual Weed Control (%) - 20 DAA CYPIR Obs,CYPIR; 4.38 g ae/ha alone,30%
same,Visual Weed Control (%) - 20 DAA ECHCG Obs,ECHCG; 4.38 g ae/ha alone,60%
same,Visual Weed Control (%) - 20 DAA ECHCG Obs,ECHCG; 5.3 g ae/ha alone,65%
same,Visual Weed Control (%) - 20 DAA ECHCG Obs,ECHCG; 8.75 g ae/ha alone,80%
same,Visual Weed Control (%) - 20 DAA ECHCG Obs,ECHCG; 10.6 g ae/ha alone,90%
same,Visual Weed Control (%) - 20 DAA ECHCG Obs,ECHCG; 17.5 g ae/ha alone,95%
same,Visual Weed Control (%) - 21 DAA ECHCG Obs,ECHCG; 5.3 g ae/ha alone,65%
same,Visual Weed Control (%) - 21 DAA ECHCG Obs,ECHCG; 10.6 g ae/ha alone,85%
same,Visual Weed Control (%) - 21 DAA ECHCG Obs,ECHCG; 21.2 g ae/ha alone,95%
same,Visual Weed Control (%) - 20 DAA ECHCG Obs,ECHCG; 21.2 g ae/ha alone,95%
COc1c(Cl)ccc(-c2nc(C(=O)OCc3ccccc3)c(Cl)c(N)c2F)c1F [Compound A Benzyl Ester],Visual Weed Control (%) - 19 DAA ECHCO Obs,ECHCO; 8 g ae/ha alone,65%
same,Visual Weed Control (%) - 20 DAA ECHCO Obs,ECHCO; 8 g ae/ha alone,65%
same,Visual Weed Control (%) - 19 DAA ECHCO Obs,ECHCO; 16 g ae/ha alone,90%
same,Visual Weed Control (%) - 19 DAA ECHCO Obs,"ECHCO; 19 DAA, 8 g ae/ha alone",65%
same,Visual Weed Control (%) - 19 DAA ECHCO Obs,"ECHCO; 19 DAA, 16 g ae/ha alone",90%
same,Visual Weed Control (%) - 19 DAA ECHCO Obs,"ECHCO; 19 DAA, 32 g ae/ha alone",95%
same,Visual Weed Control (%) - 19 DAA ECHCO Obs,ECHCO; 32 g ae/ha alone,95%
same,Visual Weed Control (%) - 20 DAA BRAPP Obs,BRAPP; 4.38 g ae/ha alone,75%
same,Visual Weed Control (%) - 20 DAA BRAPP Obs,BRAPP; 8 g ae/ha alone,55%
same,Visual Weed Control (%) - 21 DAA BRAPP Obs,BRAPP; 8 g ae/ha alone,70%
same,Visual Weed Control (%) - 20 DAA BRAPP Obs,BRAPP; 8.75 g ae/ha alone,75%
same,Visual Weed Control (%) - 20 DAA BRAPP Obs,BRAPP; 17.5 g ae/ha alone,95%
same,Visual Weed Control (%) - 22 DAA CYPIR Obs,CYPIR; 4.38 g ae/ha alone,70%
same,Visual Weed Control (%) - 21 DAA CYPIR Obs,CYPIR; 8 g ae/ha alone,50%
same,Visual Weed Control (%) - 21 DAA CYPIR Obs,"CYPIR; 21 DAA, 8 g ae/ha alone",50%
same,Visual Weed Control (%) - 20 DAA ECHCG Obs,ECHCG; 4.38 g ae/ha alone,60% and 70%
same,Visual Weed Control (%) - 19 DAA ECHCG Obs,ECHCG; 8 g ae/ha alone,85%
same,Visual Weed Control (%) - 20 DAA ECHCG Obs,ECHCG; 8 g ae/ha alone,70%
same,Visual Weed Control (%) - 22 DAA ECHCG Obs,ECHCG; 8 g ae/ha alone,50%
same,Visual Weed Control (%) - 20 DAA ECHCG Obs,ECHCG; 8.75 g ae/ha alone,85% and 80%
same,Visual Weed Control (%) - 19 DAA ECHCG Obs,ECHCG; 16 g ae/ha alone,85%
same,Visual Weed Control (%) - 22 DAA ECHCG Obs,ECHCG; 16 g ae/ha alone,60%
same,Visual Weed Control (%) - 20 DAA ECHCG Obs,ECHCG; 17.5 g ae/ha alone,90% and 95%
same,Visual Weed Control (%) - 21 DAA ECHCG Obs,ECHCG; 4.38 g ae/ha alone,70%
same,Visual Weed Control (%) - 21 DAA ECHCG Obs,ECHCG; 8.75 g ae/ha alone,85%
same,Visual Weed Control (%) - 21 DAA ECHCG Obs,ECHCG; 17.5 g ae/ha alone,90%
same,Visual Weed Control (%) - 22 DAA ECHCG Obs,"ECHCG; 22 DAA, 8 g ae/ha alone",45% and 50%
same,Visual Weed Control (%) - 22 DAA ECHCG Obs,"ECHCG; 22 DAA, 16 g ae/ha alone",60%
same,Visual Weed Control (%) - 22 DAA ECHCG Obs,"ECHCG; 22 DAA, 32 g ae/ha alone",90% and 95%
same,Visual Weed Control (%) - 19 DAA ECHCG Obs,ECHCG; 32 g ae/ha alone,95%
"CC(c1ccc(C(F)(F)F)nc1)S(C)(=O)=NC#N (centres unmarked) [Sulfoxaflor, N-[methyloxido[1-[6-(trifluoromethyl)-3-pyridinyl]ethyl]-λ^4-sulfanylidene]cyanamide]",Visual Weed Control (%) - 21 DAA ECHCO Obs,ECHCO; 12.5 g ai/ha alone,0%
same,Visual Weed Control (%) - 21 DAA ECHCO Obs,ECHCO; 25 g ai/ha alone,0%
same,Visual Weed Control (%) - 21 DAA ECHCO Obs,ECHCO; 50 g ai/ha alone,0%
same,Visual Weed Control (%) - 21 DAA CYPIR Obs,"CYPIR; 21 DAA, 75 g ai/ha alone",0%
same,Visual Weed Control (%) - 21 DAA CYPIR Obs,"CYPIR; 21 DAA, 150 g ai/ha alone",0%
